Test results reported in the supplement of paper PMC10307832.

Assays:
Test in all cases: relative viability (nuclei count vs DMSO), 5 days (fraction); higher = more cells survive
Masitinib + Pictilisib = compound: Cc1ccc(NC(=O)c2ccc(CN3CCN(C)CC3)cc2)cc1Nc1nc(-c2cccnc2)cs1 [Masitinib] + CS(=O)(=O)N1CCN(Cc2cc3nc(-c4cccc5[nH]ncc45)nc(N4CCOCC4)c3s2)CC1 [Pictilisib] (partner 1 µM)
Summary of the method: (§1)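 Each reported value is a median over duplicate plates. It expresses relative viability: treated-well nuclei count divided by vehicle-well nuclei count. Lung cancer cell lines in 1536-well plates were dosed by pin tool a day after seeding, alone with one drug or with a fixed anchor-drug dose plus five library-drug doses (not always all listed) in √10 steps, and nuclei were counted after 5 days.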

[1] = compound: CC1=CC(=CC=C1)NC2=NC(=CS2)C3=CC=NC=C3 + CC(=O)Nc1cccc(-n2c(=O)n(C3CC3)c(=O)c3c(Nc4ccc(I)cc4F)n(C)c(=O)c(C)c32)c1 [Trametinib] (partner 0.02 µM)
Summary of the method: as §1

Masitinib + Olaparib = compound: Cc1ccc(NC(=O)c2ccc(CN3CCN(C)CC3)cc2)cc1Nc1nc(-c2cccnc2)cs1 [Masitinib] + O=C(c1cc(Cc2n[nH]c(=O)c3ccccc23)ccc1F)N1CCN(C(=O)C2CC2)CC1 [Olaparib] (partner 8 µM)
Summary of the method: as §1

[2] = compound: CC1=CC(=CC=C1)NC2=NC(=CS2)C3=CC=NC=C3 + CCNC(=O)c1noc(-c2cc(C(C)C)c(O)cc2O)c1-c1ccc(CN2CCOCC2)cc1 [Luminespib] (partner 0.01 µM)
Summary of the method: as §1

Cell Line	relative viability (Masitinib + Pictilisib; first compound 0.01 µM)	relative viability (Masitinib + Pictilisib; first compound 0.03162 µM)	relative viability (Masitinib + Pictilisib; first compound 0.1 µM)	relative viability (Masitinib + Pictilisib; first compound 0.3162 µM)	relative viability (Masitinib + Pictilisib; first compound 1 µM)	relative viability ([1]; first compound 0.08 µM)	relative viability ([1]; first compound 0.253 µM)	relative viability ([1]; first compound 0.8 µM)	relative viability ([1]; first compound 2.53 µM)	relative viability ([1]; first compound 8 µM)	relative viability (Masitinib + Olaparib; first compound 0.01 µM)	relative viability (Masitinib + Olaparib; first compound 0.03162 µM)	relative viability (Masitinib + Olaparib; first compound 0.1 µM)	relative viability (Masitinib + Olaparib; first compound 0.3162 µM)	relative viability (Masitinib + Olaparib; first compound 1 µM)	relative viability ([2]; first compound 0.08 µM)	relative viability ([2]; first compound 0.253 µM)	relative viability ([2]; first compound 0.8 µM)	relative viability ([2]; first compound 2.53 µM)	relative viability ([2]; first compound 8 µM)
HCC-78	0.206	0.19	0.23	0.19	0.223	0.505	0.666	0.617	0.563	0.753	0.798	0.855	0.871	0.712	0.824	–	–	–	–	–
HCC-366	0.119	0.0994	0.131	0.115	0.138	0.357	0.273	0.183	0.214	0.168	–	0.384	0.357	0.343	0.396	–	–	–	–	–
HCC-827	0.998	0.918	0.977	0.921	0.942	0.497	0.529	0.564	0.542	0.53	0.564	0.642	0.655	0.624	0.695	0.618	0.453	0.649	0.89	0.726
HOP-62	0.652	0.676	0.842	0.71	0.557	0.371	0.324	0.345	0.328	0.266	0.312	0.819	0.451	0.289	0.418	0.952	0.8	0.867	0.914	0.879
IA-LM	0.291	0.415	0.353	0.455	0.418	–	–	–	–	–	0.896	0.875	0.929	0.796	0.836	–	–	–	–	–
LC-2-ad	0.435	0.46	0.467	0.409	0.412	0.862	0.881	0.826	0.839	0.8	0.708	0.715	0.719	0.702	0.73	0.858	–	1.09	0.768	0.965
LCLC-97TM1	0.156	0.172	0.287	0.218	0.2	0.185	0.214	0.157	0.178	0.185	0.402	0.396	0.406	0.473	0.427	0.689	0.794	0.839	0.816	0.825
LCLC-103H	0.557	0.621	0.596	0.583	0.543	0.629	0.593	0.586	0.579	0.658	–	0.747	0.75	0.758	0.781	1	0.824	0.878	0.943	0.608
LK-2	0.595	0.656	0.671	0.569	0.641	0.817	0.806	0.951	0.772	1.33	0.8	0.679	1.01	0.615	0.7	–	0.161	0.207	–	0.183
LOU-NH91	0.497	0.499	0.492	0.432	0.501	0.704	0.734	0.721	0.754	0.728	0.883	0.917	0.902	0.869	0.908	0.319	0.351	0.33	0.297	0.314
LU99A	0.324	0.332	0.346	0.349	0.279	0.521	0.575	0.509	0.525	0.477	0.27	0.276	0.246	0.255	0.269	0.256	0.213	0.242	0.302	0.254
LXF-289	0.729	0.836	0.792	0.846	0.761	0.639	0.674	0.648	0.739	0.606	0.948	0.99	1.06	1.04	1.02	0.655	0.649	0.573	0.646	0.69
NCI-H23	0.434	0.493	0.525	0.495	0.457	0.371	0.199	0.424	0.388	0.419	0.294	0.256	0.295	0.242	0.264	0.208	0.184	0.208	0.221	0.22
NCI-H522	–	–	–	–	–	0.79	0.66	0.832	0.789	0.878	0.609	0.766	0.66	0.534	0.619	1.25	1.07	1.34	–	1.28
NCI-H1299	0.8	0.785	0.81	0.947	0.736	–	–	–	–	–	0.936	0.988	0.993	1.06	0.846	–	–	–	–	–
NCI-H1563	0.656	0.641	0.647	0.665	0.676	–	–	–	–	–	–	–	–	–	–	0.488	0.546	0.546	0.506	0.541
NCI-H1623	–	–	–	–	–	–	–	–	–	–	–	–	–	–	–	0.496	0.453	0.369	0.371	0.391
NCI-H1648	–	–	–	–	–	0.353	0.569	0.444	0.471	0.588	1.04	0.78	1.08	–	0.96	–	–	–	–	–
NCI-H1703	0.226	0.255	0.217	0.203	0.201	–	–	–	–	–	0.308	0.267	0.231	0.174	0.277	–	–	–	–	–
NCI-H2342	–	–	–	–	–	0.686	0.729	0.695	0.74	0.732	0.447	0.485	0.425	0.44	0.36	0.746	0.717	0.771	0.67	0.676
SW 900	–	–	–	–	–	0.518	0.539	0.913	0.508	0.667	0.809	0.878	0.918	0.684	0.966	0.186	0.178	0.172	0.188	0.178
